Laboratory results from patent US8466107B2, “Fibrin-binding peptides and conjugates thereof” (Bracco Imaging SpA, priority 2006, dated 2013).
Bridge positions count the residues as written; N and C are the ends. Square brackets hold non-standard residues; d marks the D form. Peptide text beside a SMILES is read from it. * marks the point of attachment. 5FAM = O=C1OC2(c3ccc(O)cc3Oc3cc(O)ccc32)c2ccc(C(=O)*)cc21; Phe(3,4-F2) = N[C@@H](Cc1ccc(F)c(F)c1)C(=O)O; Phe(4-F) = N[C@@H](Cc1ccc(F)cc1)C(=O)O; Cha = N[C@@H](CC1CCCCC1)C(=O)O; AEEA = NCCOCCOCC(=O)O

Biological target: DDE (fibrin-derived polypeptide) (Homo sapiens, UniProt P02671+P02675+P02679)
Assay: Direct binding fluorescence polarization (FP) assay using 5-carboxyfluorescein labeled peptides
Details: 20 nM CF5-labeled peptide, serial dilutions of DDE, anisotropy read at 485 nm; read-out: KD (μM) Direct Binding (n = 2)
Procedure: Assay of Fibrin Binding Peptides by Direct Binding Fluorescence Polarization (FP) Procedure using 5-Carboxyfluoresein Labeled Peptides
Protocol • 1. Prepare 1 mL of 40 nM solution of 5-carboxyfluorescein-labeled peptide in HEPES dilution buffer (HDB) with 0.01% Tween. • HDB (10 mM HEPES, 150 mM […], 2 mM CaCl2) • 2. Dilute the 40 nM solution to obtain 1 ml of a 20 nM solution of the test 5-carboxyfluorescein-labeled peptide. • 3. Prepare a solution of DDE at a concentration that will be approximately 5-10 fold greater than the expected KD. For the described assay an 8 μM concentration of DDE was prepared. • 4. Mix equal volumes of the DDE solution with the 40 nM peptide solution. • 5. Prepare serial dilutions of DDE in a solution consisting of the binding buffer with 0.01% Tween20 and 20 nM of the 5-carboxyfluorescein-labeled peptide. • 6. Make dilutions as shown in the following table in a Labsystems 384-well microplate and mix by repeated aspiration and dispensing of the solution into the wells. • 7. Centrifuge the plate at 2000 RPM for 5 minutes to remove air pockets in the wells. • 8. Read in Tecan Polarion Plate Reader at 485 nm to obtain the anisotropy value.
The anisotropy (in mP—millipolarization units) vs the logarithm of the concentration (micromoles/liter) of the receptor concentration is graphed. The dissociation constant is obtained at the midpoint of the curve whose extrema are Afree and Abound where Afree is the anisotropy of the free peptide and Abound is the anisotropy of the fully bound peptide. The theory, methods of operation and mathematical analysis is described in, for example, the following reference: Fluorescence Polarization Technical Resource Guide Technical Resource Guide 4th Edn. Invitrogen Corporation•501 Charmany Drive•Madison, Wis. 53719 USA. Particularly, the mathematical analysis of the data and obtaining binding constants is described in Chapter 8: Analysis of FP Binding Data pp 8-2-8-7.

Chain of DDE (fibrin-derived polypeptide) (P02671 124-216): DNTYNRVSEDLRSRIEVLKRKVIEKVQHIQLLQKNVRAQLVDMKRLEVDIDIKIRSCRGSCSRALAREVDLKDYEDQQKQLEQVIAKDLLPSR
Chain of DDE (fibrin-derived polypeptide) (P02675 164-491): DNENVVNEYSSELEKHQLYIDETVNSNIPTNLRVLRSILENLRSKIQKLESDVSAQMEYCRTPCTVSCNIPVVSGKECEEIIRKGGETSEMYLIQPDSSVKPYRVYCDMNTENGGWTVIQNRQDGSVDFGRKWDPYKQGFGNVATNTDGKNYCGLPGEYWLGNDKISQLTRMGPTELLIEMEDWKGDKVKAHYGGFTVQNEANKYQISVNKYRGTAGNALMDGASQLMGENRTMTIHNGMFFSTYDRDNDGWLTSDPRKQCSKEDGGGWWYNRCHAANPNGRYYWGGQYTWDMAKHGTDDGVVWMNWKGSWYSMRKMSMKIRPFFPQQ
Chain of DDE (fibrin-derived polypeptide) (P02679 114-432): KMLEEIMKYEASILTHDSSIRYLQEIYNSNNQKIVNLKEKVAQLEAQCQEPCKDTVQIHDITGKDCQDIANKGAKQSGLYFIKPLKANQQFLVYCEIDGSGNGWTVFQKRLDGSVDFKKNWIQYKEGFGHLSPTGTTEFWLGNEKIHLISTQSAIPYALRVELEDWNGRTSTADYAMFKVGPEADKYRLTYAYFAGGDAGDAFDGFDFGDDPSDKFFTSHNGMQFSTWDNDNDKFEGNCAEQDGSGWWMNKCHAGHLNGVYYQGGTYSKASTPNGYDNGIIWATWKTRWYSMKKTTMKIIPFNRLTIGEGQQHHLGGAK
Chain of DDE (fibrin-derived polypeptide) (P02671 36-97): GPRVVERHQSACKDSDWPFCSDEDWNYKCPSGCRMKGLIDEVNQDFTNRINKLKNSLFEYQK
Chain of DDE (fibrin-derived polypeptide) (P02675 45-152): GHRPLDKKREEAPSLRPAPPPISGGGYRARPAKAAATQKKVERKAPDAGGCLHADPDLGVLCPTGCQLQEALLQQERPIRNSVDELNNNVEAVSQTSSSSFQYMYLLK
Chain of DDE (fibrin-derived polypeptide) (P02679 27-88): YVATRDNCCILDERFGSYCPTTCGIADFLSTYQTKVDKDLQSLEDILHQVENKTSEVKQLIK

Row | SMILES | Kd
1 | C[C@@H](O)[C@@H]1NC(=O)[C@H](Cc2c[nH]c3ccccc23)NC(=O)[C@H](CO)NC(=O)[C@H](CCC(=O)O)NC(=O)[C@H](Cc2c[nH]c3ccccc23)NC(=O)[C@@H]2CCCN2C(=O)[C@@H](NC(=O)[C@@H]2CCCN2C(=O)[C@H](CCC(N)=O)NC(=O)[C@H](Cc2c[nH]c3ccccc23)NC(=O)CNC(=O)[C@@H](N)CCCNC(=N)N)CSSC[C@@H](C(=O)N[C@@H](Cc2c[nH]c3ccccc23)C(=O)N[C@@H](CC(=O)O)C(=O)N2CCC[C@H]2C(=O)NCC(=O)NCC(=O)NCC(=O)N[C@@H](CCCCNC(=O)c2ccc3c(c2)C(=O)OC32c3ccc(O)cc3Oc3cc(O)ccc32)C(N)=O)NC(=O)[C@H](Cc2ccccc2)NC1=O [Seq022-CF5] (H-RGWQPCPWESWTFCWDPGGGK(5FAM)-NH2; disulfide 6-14; N-terminus assumed) | 0.28 µM
2 | C[C@@H]1NC(=O)[C@@H]2CCCN2C(=O)[C@@H](NC(=O)[C@@H]2CCCN2C(=O)[C@H](CCC(N)=O)NC(=O)[C@H](Cc2c[nH]c3ccccc23)NC(=O)CNC(=O)[C@@H](N)CCCNC(=N)N)CSSC[C@@H](C(=O)N[C@@H](Cc2c[nH]c3ccccc23)C(=O)N[C@@H](CC(=O)O)C(=O)N2CCC[C@H]2C(=O)NCC(=O)NCC(=O)NCC(=O)N[C@@H](CCCCNC(=O)c2ccc3c(c2)C(=O)OC32c3ccc(O)cc3Oc3cc(O)ccc32)C(N)=O)NC(=O)[C@H](CC2CCCCC2)NC(=O)[C@H]([C@@H](C)O)NC(=O)[C@H](Cc2c[nH]c3ccccc23)NC(=O)[C@H](CO)NC(=O)[C@H](CCC(=O)O)NC1=O [Seq054-CF5, RGWQPC*PAESWT-Cha-C*WDPGGGK(CF5)-NH2] (H-RGWQPCPAESWT[Cha]CWDPGGGK(5FAM)-NH2; disulfide 6-14) | 0.05 µM
3 | CC(=O)NCC(=O)N[C@@H](Cc1c[nH]c2ccccc12)C(=O)N[C@@H](CCC(N)=O)C(=O)N1CCC[C@H]1C(=O)N[C@H]1CSSC[C@@H](C(=O)N[C@@H](Cc2c[nH]c3ccccc23)C(=O)N[C@@H](CC(=O)O)C(=O)N2CCC[C@H]2C(=O)NCC(=O)NCC(=O)NCC(=O)N[C@@H](CCCCNC(=O)c2ccc3c(c2)C(=O)OC32c3ccc(O)cc3Oc3cc(O)ccc32)C(N)=O)NC(=O)[C@H](Cc2ccccc2)NC(=O)[C@H]([C@@H](C)O)NC(=O)[C@H](Cc2c[nH]c3ccccc23)NC(=O)[C@H](CO)NC(=O)[C@H](CCC(=O)O)NC(=O)[C@H](Cc2c[nH]c3ccccc23)NC(=O)[C@@H]2CCCN2C1=O [Seq016-CF5] (Ac-GWQPCPWESWTFCWDPGGGK(5FAM)-NH2; disulfide 5-13) | 0.23 µM
4 | CC(=O)N[C@@H](Cc1c[nH]c2ccccc12)C(=O)N[C@@H](CCC(N)=O)C(=O)N1CCC[C@H]1C(=O)N[C@H]1CSSC[C@@H](C(=O)N[C@@H](Cc2c[nH]c3ccccc23)C(=O)N[C@@H](CC(=O)O)C(=O)N2CCC[C@H]2C(=O)NCC(=O)NCC(=O)NCC(=O)N[C@@H](CCCCNC(=O)c2ccc3c(c2)C(=O)OC32c3ccc(O)cc3Oc3cc(O)ccc32)C(N)=O)NC(=O)[C@H](Cc2ccc(F)cc2)NC(=O)[C@H]([C@@H](C)O)NC(=O)[C@H](Cc2c[nH]c3ccccc23)NC(=O)[C@H](CO)NC(=O)[C@H](CCC(=O)O)NC(=O)[C@H](Cc2c[nH]c3ccccc23)NC(=O)[C@@H]2CCCN2C1=O [Seq019-CF5, Ac-WQPC*PWESWT-Ffe4-C*WDPGGGK(CF5)-NH2] (Ac-WQPCPWESWT[Phe(4-F)]CWDPGGGK(5FAM)-NH2; disulfide 4-12) | 1.02 µM
5 | CC(=O)NCC(=O)N[C@@H](Cc1c[nH]c2ccccc12)C(=O)N[C@@H](CCC(N)=O)C(=O)N1CCC[C@H]1C(=O)N[C@H]1CSSC[C@@H](C(=O)N[C@@H](Cc2c[nH]c3ccccc23)C(=O)N[C@@H](CC(=O)O)C(=O)N2CCC[C@H]2C(=O)NCC(=O)NCC(=O)NCC(=O)N[C@@H](CCCCNC(=O)c2ccc3c(c2)C(=O)OC32c3ccc(O)cc3Oc3cc(O)ccc32)C(N)=O)NC(=O)[C@H](CC2CCCCC2)NC(=O)[C@H]([C@@H](C)O)NC(=O)[C@H](Cc2c[nH]c3ccccc23)NC(=O)[C@H](CO)NC(=O)[C@H](CCC(=O)O)NC(=O)[C@H](C)NC(=O)[C@@H]2CCCN2C1=O [Seq055-CF5, Ac-GWQPC*PAESWT-Cha-C*WDPGGGK(CF5)-NH2] (Ac-GWQPCPAESWT[Cha]CWDPGGGK(5FAM)-NH2; disulfide 5-13) | 0.08 µM
6 | C[C@@H]1NC(=O)[C@@H]2CCCN2C(=O)[C@@H](NC(=O)[C@@H]2CCCN2C(=O)[C@H](CCC(N)=O)NC(=O)[C@H](Cc2c[nH]c3ccccc23)NC(=O)CN)CSSC[C@@H](C(=O)N[C@@H](Cc2c[nH]c3ccccc23)C(=O)N[C@@H](CC(=O)O)C(=O)N2CCC[C@H]2C(=O)NCC(=O)NCC(=O)NCC(=O)N[C@@H](CCCCNC(=O)c2ccc3c(c2)C(=O)OC32c3ccc(O)cc3Oc3cc(O)ccc32)C(N)=O)NC(=O)[C@H](Cc2ccccc2)NC(=O)[C@H]([C@@H](C)O)NC(=O)[C@H](Cc2c[nH]c3ccccc23)NC(=O)[C@H](CO)NC(=O)[C@H](CCC(=O)O)NC1=O [Seq038-CF5] (H-GWQPCPAESWTFCWDPGGGK(5FAM)-NH2; disulfide 5-13; N-terminus assumed) | 0.24 µM
7 | CC(=O)N[C@@H](CCCCN)C(=O)NCC(=O)N[C@@H](CCCCN)C(=O)NCC(=O)N[C@@H](CCCCN)C(=O)NCC(=O)N[C@@H](Cc1c[nH]c2ccccc12)C(=O)N[C@@H](CCC(N)=O)C(=O)N1CCC[C@H]1C(=O)N[C@H]1CSSC[C@@H](C(=O)N[C@@H](Cc2c[nH]c3ccccc23)C(=O)N[C@@H](CC(=O)O)C(=O)N2CCC[C@H]2C(=O)NCC(=O)NCC(=O)NCC(=O)N[C@@H](CCCCNC(=O)c2ccc3c(c2)C(=O)OC32c3ccc(O)cc3Oc3cc(O)ccc32)C(N)=O)NC(=O)[C@H](Cc2ccccc2)NC(=O)[C@H]([C@@H](C)O)NC(=O)[C@H](Cc2c[nH]c3ccccc23)NC(=O)[C@H](CO)NC(=O)[C@H](CCC(=O)O)NC(=O)[C@H](Cc2c[nH]c3ccccc23)NC(=O)[C@@H]2CCCN2C1=O [Seq026-CF5] (Ac-KGKGKGWQPCPWESWTFCWDPGGGK(5FAM)-NH2; disulfide 10-18) | 0.76 µM
8 | CC(=O)N[C@@H](CO)C(=O)NCC(=O)N[C@@H](CO)C(=O)NCC(=O)N[C@@H](CO)C(=O)NCC(=O)N[C@@H](CO)C(=O)NCC(=O)N[C@@H](Cc1c[nH]c2ccccc12)C(=O)N[C@@H](CCC(N)=O)C(=O)N1CCC[C@H]1C(=O)N[C@H]1CSSC[C@@H](C(=O)N[C@@H](Cc2c[nH]c3ccccc23)C(=O)N[C@@H](CC(=O)O)C(=O)N2CCC[C@H]2C(=O)NCC(=O)NCC(=O)NCC(=O)N[C@@H](CCCCNC(=O)c2ccc3c(c2)C(=O)OC32c3ccc(O)cc3Oc3cc(O)ccc32)C(N)=O)NC(=O)[C@H](Cc2ccccc2)NC(=O)[C@H]([C@@H](C)O)NC(=O)[C@H](Cc2c[nH]c3ccccc23)NC(=O)[C@H](CO)NC(=O)[C@H](CCC(=O)O)NC(=O)[C@H](C)NC(=O)[C@@H]2CCCN2C1=O [Seq040-CF5] (Ac-SGSGSGSGWQPCPAESWTFCWDPGGGK(5FAM)-NH2; disulfide 12-20) | 0.53 µM
9 | CC(=O)N[C@@H](Cc1c[nH]c2ccccc12)C(=O)N[C@@H](CCC(N)=O)C(=O)N1CCC[C@H]1C(=O)N[C@H]1CSSC[C@@H](C(=O)N[C@@H](Cc2c[nH]c3ccccc23)C(=O)N[C@@H](CC(=O)O)C(=O)N2CCC[C@H]2C(=O)NCC(=O)NCC(=O)NCC(=O)N[C@@H](CCCCNC(=O)c2ccc3c(c2)C(=O)OC32c3ccc(O)cc3Oc3cc(O)ccc32)C(N)=O)NC(=O)[C@H](Cc2ccc(F)c(F)c2)NC(=O)[C@H]([C@@H](C)O)NC(=O)[C@H](Cc2c[nH]c3ccccc23)NC(=O)[C@H](CO)NC(=O)[C@H](CCC(=O)O)NC(=O)[C@H](Cc2c[nH]c3ccccc23)NC(=O)[C@@H]2CCCN2C1=O [Seq020-CF5, Ac-WQPC*PWESWT-F34fe-C*WDPGGGK(CF5)-NH2] (Ac-WQPCPWESWT[Phe(3,4-F2)]CWDPGGGK(5FAM)-NH2; disulfide 4-12) | 0.7 µM
10 | CC(=O)N[C@@H](CO)C(=O)NCC(=O)N[C@@H](CO)C(=O)NCC(=O)NCCOCCOCC(=O)N[C@@H](Cc1c[nH]c2ccccc12)C(=O)N[C@@H](CCC(N)=O)C(=O)N1CCC[C@H]1C(=O)N[C@H]1CSSC[C@@H](C(=O)N[C@@H](Cc2c[nH]c3ccccc23)C(=O)N[C@@H](CC(=O)O)C(=O)N2CCC[C@H]2C(=O)NCC(=O)NCC(=O)NCC(=O)N[C@@H](CCCCNC(=O)c2ccc3c(c2)C(=O)OC32c3ccc(O)cc3Oc3cc(O)ccc32)C(N)=O)NC(=O)[C@H](Cc2ccccc2)NC(=O)[C@H]([C@@H](C)O)NC(=O)[C@H](Cc2c[nH]c3ccccc23)NC(=O)[C@H](CO)NC(=O)[C@H](CCC(=O)O)NC(=O)[C@H](Cc2c[nH]c3ccccc23)NC(=O)[C@@H]2CCCN2C1=O [Seq017-CF5] (Ac-SGSG[AEEA]WQPCPWESWTFCWDPGGGK(5FAM)-NH2; disulfide 9-17) | 0.45 µM
